Reference: PMC5760651, “Peptidomimetic blockade of MYB in acute myeloid leukemia” (Nature Communications, 2018)
Non-standard residues stand in square brackets, D forms with d. Residues, ends and D or L forms follow the SMILES beside them.

How the values were obtained:
MOLM-13 cells = test: RNA-seq transcriptome profiling; assay type: cell-based, human; settings: MOLM13 cells, 20 µM, 6 h
Protocol: Reads were quality and adapter trimmed using “trim_galore” before aligning to human assembly hg19 with STAR v2.5 using the default parameters. Coverage and post-alignment quality were assessed using the Picard tool CollectRNASeqMetrics (http://broadinstitute.github.io/picard/). Read count tables were created using HTSeq v0.6.1. Normalization and expression dynamics were evaluated with DESeq2 using the default parameters.

MV-411 cells = test: Flow cytometric analysis of apoptosis; assay type: cell-based, human; settings: 20 μM, 24 h, flow cytometry, p = 5.4e-3
Protocol: Cells were resuspended to a concentration of 1 × 10^6 cells were plated in triplicate in a 12-well tissue culture plate. For assessment of annexin V staining, cells were washed with PBS and then resuspended in PBS with Annexin V-APC (BioLegend) and propidium iodide at a dilution of 1:1000. For intracellular detection of cleaved caspase 3, cells were fixed and permeabilized using the BD Cytofix/Cytoperm Fixation/Permeabilization solution according to the manufacturer’s instructions (BD Biosciences). Cells were then stained using the Alexa Fluor 647-conjugated anti-active caspase-3 (BD Biosciences) at a dilution of 1:50. Cells were incubated for 30 minutes room temperature in the dark, washed, and then analyzed using the BD LSRFortessa cell analyzer. For assessment of differentiation, cells were stained using the anti-human CD14 PE at a dilution of 1:20 (Affymetrix eBiosciences) and anti-human CD66b at a dilution of 1:20 (Affymetrix eBiosciences).

MV-411 and MOLM-13 cells = test: qRT-PCR of BCL2 mRNA expression; assay type: cell-based, human; settings: 20 μM, 6 h
Protocol: RNA was isolated using Trizol reagent according to the manufacturer’s instructions (Life Technologies). Complementary DNA was synthesized using the SuperScript III First-Strand Synthesis system according to the manufacturer’s instructions (Invitrogen). Quantitative real-time PCR was performed using the KAPA SYBR FAST PCR polymerase with 20 ng template and 200 nM primers, according to the manufacturer’s instructions (Kapa Biosystems, Wilmington, MA, USA). PCR primers are listed in Supplementary Table 4. Ct values were calculated using ROX normalization using the ViiA 7 software (Applied Biosystems).

MV411 and MOLM-13 cells = test: Western blot of BCL2 protein; assay type: cell-based, human; settings: 20 μM, 6 hours and 24 hours
Protocol: Cells were lysed in RIPA buffer (Thermo Fisher) supplemented with a protease inhibitor mix comprised of AEBSF (0.5 mM concentration, Santa Cruz, SC-202041B), Bestatin (0.01 mM, Fisher/Alfa Aesar, J61106-MD), Leupeptin (0.1 mM, Santa Cruz, SC-295358B), and Pepstatin (0.001 mM, Santa Cruz, SC-45036A). Lysates were mechanically disrupted using Covaris S220 adaptive focused sonicator, according to the manufacturer’s instructions (Covaris, Woburn, CA). Lysates were cleared by centrifugation for 15 min at 18,000 × g and clarified lysates were quantified using the bicinchoninic acid assay (Pierce). Clarified lysates (20 μg of protein) were resolved using sodium dodecyl sulfate-polyacrylamide gel electrophoresis, and electroeluted using the Immobilon FL PVDF membranes (Millipore, Billerica, MA, USA). Membranes were blocked using the Odyssey Blocking buffer (Li-Cor, Lincoln, Nebraska, USA). […] Blotted membranes were visualized using secondary antibodies conjugated to IRDye 800CW or IRDye 680RD (Goat anti-rabbit, 1:15,000, and goat anti-mouse, 1:15,000) and the Odyssey CLx fluorescence scanner, according to manufacturer’s instructions (Li-Cor, Lincoln, Nebraska, USA).
Supplementary Figure 9. BCL2 expression as measured by Western blot in MV411 and […]
ImageJ. BCL2 protein expression is quantified as a fraction of its respective PBS control […]

C57BL/6J mice = test: Peripheral blood counts after 7 days of treatment; assay type: in vivo, mouse; settings: 25 mg/kg IP daily
Protocol: (§1) All mouse experiments were carried out in accordance with the Memorial Sloan Kettering Institutional Animal Care and Use Committee. For toxicity studies, female C57BL/6J mice (The Jackson Laboratory, Bar Harbor, Maine, USA) were treated with MYBMIM peptide suspended in PBS and administered daily through intraperitoneal injection at a dose of 25 mg/kg for a total of 7 days. Mice were sacrificed at the end of treatment for hematologic, biochemical and histologic analyses. For pharmacokinetic studies, C57BL/6J mice (The Jackson Laboratory, Bar Harbor, Maine, USA) were treated with a single IP injection of 25 mg/kg BIO-MYBMIM, and blood plasma was collected 30 min, 2 h, 4 h, and 24 h post-injection. Quantification of BIO-MYBMIM was measured using the Quant-Tag Biotin kit (Vector Labs, cat. # BDK-2000) following the manufacturer instructions. For patient-derived xenografts, two hundred thousand primary AML MLL-rearranged leukemia cells were suspended in […] of PBS and transplanted via tail vein injection into 8-week-old sublethally irradiated (200 rad) female NOD.Cg-Prkdc(scid)Il2rg(tm1Wjl)/SzJ mice (The Jackson Laboratory, Bar Harbor, Maine, USA). […] Mice were treated from days 3–17 of this study for a total of 14 days and then monitored daily with clinical examination for survival analysis.

[1] = test system: primary patient-derived MLL-rearranged leukemia cells in NSG mice; test: Patient-derived MLL-rearranged leukemia xenograft, treatment 3 days post transplantation, survival; assay type: in vivo, mouse
Protocol: as §1

CC[C@@H](C)[C@@H](NC(=O)[C@@H](CCCCN)NC(=O)[C@@H](CCC(=O)O)NC(=O)[C@@H](CC(C)C)NC(=O)[C@@H](CCC(=O)O)NC(=O)[C@@H](CC(C)C)NC(=O)[C@@H](CC(C)C)NC(=O)[C@@H](CC(C)C)NC(=O)[C@@H](CCSC)NC(=O)[C@@H](CO)NC(=O)[C@H](NC(=O)[C@@H](CCC(=O)O)NC(=O)[C@@H](CC(N)=O)NC(=O)[C@@H](CCC(=O)O)NC(=O)[C@@H](CC(C)C)NC(=O)[C@@H](CCCCN)NC(C)=O)[C@H](C)O)C(=O)N[C@H](CCCNC(=N)N)C(=O)N[C@H](CCCCN)C(=O)NCC(=O)NCC(=O)N[C@H](CCCNC(=N)N)C(=O)N[C@H](CCCNC(=N)N)C(=O)N[C@H](CCCNC(=N)N)C(=O)N[C@H](CCC(N)=O)C(=O)N[C@H](CCCNC(=N)N)C(=O)N[C@H](CCCNC(=N)N)C(=O)N[C@H](CCCCN)C(=O)N[C@H](CCCCN)C(=O)N[C@H](CCCNC(=N)N)C(=O)NCC(=O)N[C@H](Cc1ccc(O)cc1)C(N)=O [MYBMIM] (Ac-[dK][dL][dE][dN][dE][dT][dS][dM][dL][dL][dL][dE][dL][dE][dK][dI][dR][dK]GG[dR][dR][dR][dQ][dR][dR][dK][dK][dR]G[dY]-NH2)
BCL2, MYC, GFI1, MTL5, IKZF1 gene expression (MOLM-13 cells): significant downregulation
Apoptosis by cell surface annexin V and intracellular caspase 3 cleavage (MV-411 cells): significant apoptosis
BCL2 expression downregulation (MV-411 and MOLM-13 cells): more than two-fold
BCL2 protein abundance (MV411 and MOLM-13 cells): significant albeit modest decrease
Peripheral blood counts (total leukocytes, lymphocytes, platelets, blood hemoglobin) (C57BL/6J mice): no significant changes
Leukemia progression and survival ([1]; NSG mice, 25 mg/kg IP twice daily, 14 days from 3 days post-transplantation, n = 15 per group, p = 3.8e-3 log-rank): significantly delayed leukemia progression and extended survival
Disease latency in secondary transplant recipients ([1]; leukemia cells from moribund MYBMIM-treated mice vs vehicle, n = 10 per group, p < 0.0001 log-rank): significantly delayed disease latency
